Values of other authors, collected in publication PMC8374649, “IBI362 (LY3305677), a weekly-dose GLP-1 and glucagon receptor dual agonist, in Chinese adults with overweight or obesity: A randomised, placebo-controlled, multiple ascending dose phase 1b study” (EClinicalMedicine, 2021).

Assays:
[1] = tested on: Japanese adults with type 2 diabetes; settings: once-daily, 48-day phase 2a study; cited from earlier work
Excerpt: Despite the weight loss effect of glucagon, its inherited stimulation of gluconeogenesis and glycogenolysis requires optimal balancing of GLP-1 and glucagon receptor activities for dual agonists. […] IBI362 has b ...

[2] = tested on: patients with type 2 diabetes; settings: 12-week administration; cited from earlier work
Excerpt: A remarkable and unexpected finding of this study was the statistically significant reduction in serum uric acid levels in participants receiving IBI362. BMI is strongly positively correlated with serum uric acid levels, and weight loss is a commonly recommended treatment for gout, a disease resulting from chronic elevation of serum uric acid, [29], [30]. Although GLP-1 receptor agonists promote weight loss, direct evidence regarding the relationship between GLP-1 receptor agonists and blood uric acid level is limited.

Row | Substance | Weight loss and glycaemic control [1] | Plasma uric acid levels compared with placebo [2]
1 | Cotadutide | optimal weight loss and glycaemic control | 
2 | liraglutide (HAEGTFTSDVSSYLEGQAAKEFIAWLVRGRG; chains of the INN, looked up) [GLP-1 receptor agonist] |  | did not reduce plasma uric acid levels
